# Test results reported in US11001569B2, “6-membered heteroaromatic substituted cyanoindoline derivatives as NIK inhibitors” (Janssen Pharmaceutica NV, priority 2016, dated 2021).
# “And” between values parts separate entries of the source, which are not always exact repeats. Equal values may be shown once. Read-outs that look alike come from different tables or passages of the source.
# Tests used:
# [1] = system: P-IKKα levels in L363 (NIK translocated multiple myeloma) cells; assay: Effect of compounds on P-IKKα levels in L363 cells (Mesoscale sandwich immuno-assay); assay type: cell-based, human; conditions: 2 hr treatment, averaged values, read-out: Inhibition of pIKKα_L-363 (IC50 (nM))
# How it was run: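 BAFF-stimulated (1 μg/ml stock) L363 cells preincubated 24 hr at 37° C, then treated 2 hr with compound (final 1% DMSO, 8-point 1:3 dilutions). Lysate P-IKKα measured by Mesoscale sandwich immunoassay; IC50 from sigmoidal fit of % inhibition versus log concentration.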
# [2] = target: recombinant human NF-kappaB-inducing Kinase (NIK/MAP3K14) (Homo sapiens, UniProt Q99558); assay: Inhibition of auto-phosphorylation of recombinant human NIK/MAP3K14 activity (AlphaScreen); assay type: biochemical; conditions: 25 microM ATP, averaged over all measurements on all batches
# Sequence of recombinant human NF-kappaB-inducing Kinase (NIK/MAP3K14) (Q99558 whole entry): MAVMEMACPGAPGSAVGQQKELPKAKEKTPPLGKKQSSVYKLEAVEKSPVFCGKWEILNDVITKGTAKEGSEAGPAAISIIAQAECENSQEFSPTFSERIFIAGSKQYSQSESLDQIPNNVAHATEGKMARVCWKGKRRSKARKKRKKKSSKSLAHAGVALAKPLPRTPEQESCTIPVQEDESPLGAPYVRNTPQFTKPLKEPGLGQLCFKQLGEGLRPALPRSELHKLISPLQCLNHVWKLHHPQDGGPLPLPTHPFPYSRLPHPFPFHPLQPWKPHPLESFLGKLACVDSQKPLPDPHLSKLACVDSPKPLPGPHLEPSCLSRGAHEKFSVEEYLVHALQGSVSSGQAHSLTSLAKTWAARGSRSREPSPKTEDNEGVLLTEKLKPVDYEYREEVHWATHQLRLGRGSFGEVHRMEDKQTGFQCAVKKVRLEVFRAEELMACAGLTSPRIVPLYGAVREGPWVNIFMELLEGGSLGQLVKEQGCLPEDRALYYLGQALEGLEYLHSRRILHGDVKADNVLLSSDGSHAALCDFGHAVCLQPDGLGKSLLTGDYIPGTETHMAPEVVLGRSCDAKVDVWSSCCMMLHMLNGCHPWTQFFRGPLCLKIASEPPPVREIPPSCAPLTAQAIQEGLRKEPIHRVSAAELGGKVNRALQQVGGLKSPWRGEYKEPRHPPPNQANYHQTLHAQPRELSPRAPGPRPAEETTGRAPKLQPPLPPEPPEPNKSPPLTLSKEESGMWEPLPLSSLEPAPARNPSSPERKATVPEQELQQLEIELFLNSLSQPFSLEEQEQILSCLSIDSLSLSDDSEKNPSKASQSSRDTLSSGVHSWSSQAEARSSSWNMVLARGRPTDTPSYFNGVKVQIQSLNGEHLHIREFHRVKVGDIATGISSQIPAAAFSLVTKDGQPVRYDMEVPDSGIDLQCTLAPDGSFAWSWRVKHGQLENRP
# [3] = system: KMS12-BM (NIK WT) multiple myeloma cells; assay: Antiproliferative activity on KMS12-BM multiple myeloma cells (CellTiter-Glo); assay type: cell-based, human; conditions: 96 hr treatment, averaged values, read-out: KMS-12 Proliferation inhibition (IC50 (nM))
# How it was run: (§1)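 Cells plated at 15000 (JJN3) or 20000 (KMS12BM) per well and treated 96 h at 37° C, 5% CO2, final DMSO 0.3%, 9-point 1:3 dilutions. Viability by CellTiter-Glo luminescence; time-zero blank subtracted, growth expressed as percent of untreated control.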
# [4] = system: JJN-3 (NIK translocated) multiple myeloma cells; assay: Antiproliferative activity on JJN-3 multiple myeloma cells (CellTiter-Glo); assay type: cell-based, human; conditions: JJN-3 (NIK translocated) cells, 96 hr treatment, averaged values, read-out: JJN-3 Proliferation inhibition (IC50 (nM))
# How it was run: as §1
"IC50 ([1]; Homo sapiens, L-363, 2 h)",IC50 [2],melting point,"IC50 ([3]; Homo sapiens, KMS-12-BM, 96 h)","IC50 ([4]; Homo sapiens, JJN-3, 96 h)",IC50 [1],IC50 [3],IC50 [4],SMILES
1.5 nM,2.3 nM,287 °C,> 10000 nM,41 nM,–,–,–,Cc1cc(Nc2nccc(-c3cc(C#N)c4c(c3)[C@@](C)(CO)CN4)n2)c(=O)n(CCN2CCCOCC2)c1 [Compound 20i]
5.5 nM,23.4 nM,120 °C,> 10000 nM,32 nM,–,–,–,Cc1cc(Nc2nccc(-c3cc(C#N)c4c(c3)[C@@](C)(COC(=O)C(C)C)CN4)n2)c(=O)n(CCN2CC(C)OC(C)C2)c1 (stereo partly shown) [Compound 24i]
3.7 nM,3 nM,129 °C,> 10000 nM,100 nM,–,–,–,Cc1cc(Nc2nccc(-c3cc(C#N)c4c(c3)[C@@](C)(CO)CN4)n2)c(=O)n(CC2(C)COC2)c1 [Compound 29i]
4.7 nM,3 nM,234 °C,~7940 nM,28 nM,–,–,–,C[C@]1(CO)CNc2c(C#N)cc(-c3ccnc(Nc4cc(Cl)cnc4C4CC4)n3)cc21 [Compound 46]
1.2 nM,2.9 nM,192 °C,> 10000 nM,~295 nM,–,–,–,COc1nc(/C=C/C(=O)N(C)C)ccc1Nc1nccc(-c2cc(C#N)c3c(c2)[C@@](C)(CO)CN3)n1 [Compound 48]
0.8 nM,1.6 nM,195 °C,~9330 nM,35 nM,–,–,–,COc1nc(CCC(=O)N(C)C)ccc1Nc1nccc(-c2cc(C#N)c3c(c2)[C@@](C)(CO)CN3)n1 [Compound 49]
4.2 nM,1.3 nM,247 °C,6610 nM,145 nM,–,–,–,Cc1ncc(C#N)cc1Nc1nccc(-c2cc(C#N)c3c(c2)[C@@](C)(CO)CN3)n1 [Compound 50]
2.8 nM,3 nM,152 °C,> 10000 nM,31 nM,–,–,–,COCCN(C)c1nc(C)c(Nc2nccc(-c3cc(C#N)c4c(c3)[C@@](C)(CO)CN4)n2)cc1Cl [Compound 51]
0.7 nM,~1.48 nM,281 °C,871 nM,251 nM,–,–,–,CN(C)C(=O)COc1ncc(Cl)cc1Nc1nccc(-c2cc(C#N)c3c(c2)[C@@](C)(CO)CN3)n1 [Compound 52]
13.2 nM,2.5 nM,234 °C and 237 °C,> 10000 nM,16 nM,–,–,–,COc1ncc(C)cc1Nc1nccc(-c2cc(C#N)c3c(c2)[C@@](C)(CO)CN3)n1 [Compound 59]
19.5 nM,3 nM,186 °C,> 10000 nM,389 nM,–,–,–,COCCOc1ncc(F)cc1Nc1nccc(-c2cc(C#N)c3c(c2)[C@@](C)(CO)CN3)n1 [Compound 61]
17.4 nM,2.9 nM,193 °C,> 10000 nM,98 nM,–,–,–,CCCc1ncc(C#N)cc1Nc1nccc(-c2cc(C#N)c3c(c2)[C@@](C)(CO)CN3)n1 [Compound 63]
27.5 nM,4.7 nM,145 °C,6460 nM,35 nM,–,–,–,C[C@]1(CO)CNc2c(C#N)cc(-c3ccnc(Nc4cc(C#N)cnc4CCC4CC4)n3)cc21 [Compound 64]
15.5 nM,4.5 nM,158 °C,> 10000 nM,263 nM,–,–,–,COCCCc1ncc(C#N)cc1Nc1nccc(-c2cc(C#N)c3c(c2)[C@@](C)(CO)CN3)n1 [Compound 65]
~141 nM,3.3 nM,178 °C,> 10000 nM,41 nM,–,–,–,CCCCc1ncc(C#N)cc1Nc1nccc(-c2cc(C#N)c3c(c2)[C@@](C)(CO)CN3)n1 [Compound 66]
~129 nM,3.2 nM,186 °C,> 10000 nM,263 nM,–,–,–,COCCOc1ncc(C)cc1Nc1nccc(-c2cc(C#N)c3c(c2)[C@@](C)(CO)CN3)n1 [Compound 69]
~13 nM,1.6 nM,231 °C,~234 nM,144 nM,–,–,–,Cc1nc(/C=C/C(=O)N(C)C)ccc1Nc1nccc(-c2cc(C#N)c3c(c2)[C@@](C)(CO)CN3)n1 [Compound 73]
~120 nM,16.2 nM,206 °C,> 10000 nM,141 nM,–,–,–,C[C@]1(CO)CNc2c(C#N)cc(-c3ccnc(Nc4cc(C#N)cnc4OCC4CC4)n3)cc21 [Compound 74]

"IC50 ([1]; Homo sapiens, L-363, 2 h)",IC50 [2],melting point,"IC50 ([3]; Homo sapiens, KMS-12-BM, 96 h)","IC50 ([4]; Homo sapiens, JJN-3, 96 h)",IC50 [1],IC50 [3],IC50 [4],SMILES
26.9 nM,5.1 nM,162 °C,> 10000 nM,> 10000 nM,–,–,–,CC1(COc2ncc(C#N)cc2Nc2nccc(-c3cc(C#N)c4c(c3)[C@@](C)(CO)CN4)n2)COC1 [Compound 76]
25.7 nM,5 nM,162 °C,> 10000 nM,60 nM,–,–,–,CC(C)(O)COc1ncc(C#N)cc1Nc1nccc(-c2cc(C#N)c3c(c2)[C@@](C)(CO)CN3)n1 [Compound 77]
20.9 nM,4.7 nM,318 °C,> 10000 nM,513 nM,–,–,–,CC(C)(O)c1ccc(Nc2nccc(-c3cc(C#N)c4c(c3)[C@@](C)(CO)CN4)n2)c(CCC2CC2)n1 [Compound 81]
53.7 nM,12 nM,206 °C,> 10000 nM,1180 nM,–,–,–,Cc1cnc(OCC2CC2)c(Nc2nccc(-c3cc(C#N)c4c(c3)[C@@](C)(CO)CN4)n2)c1 [Compound 86]
22.4 nM,4.2 nM,198 °C,> 10000 nM,148 nM,–,–,–,CN(C)C(=O)/C=C/c1ccc(Nc2nccc(-c3cc(C#N)c4c(c3)[C@@](C)(CO)CN4)n2)c(CCC2CC2)n1 [Compound 88]
14.8 nM,3.6 nM,301 °C,> 10000 nM,912 nM,–,–,–,CN(C)C(=O)CCc1ccc(Nc2nccc(-c3cc(C#N)c4c(c3)[C@@](C)(CO)CN4)n2)c(CCC2CC2)n1 [Compound 89]
5.4 nM,8.9 nM,166 °C,> 10000 nM,81 nM,–,–,–,COc1nc(-c2cnn(C)c2)c(C)cc1Nc1nccc(-c2cc(C#N)c3c(c2)[C@@](C)(CO)CN3)n1 [Compound 91]
5.6 nM,2.1 nM,165 °C,9550 nM,1440 nM,–,–,–,CNC(=O)c1cnc(C)c(Nc2nccc(-c3cc(C#N)c4c(c3)[C@@](C)(CO)CN4)n2)c1 [Compound 93]
4.1 nM,2.8 nM,135 °C,7080 nM,5.2 nM,–,–,–,Cc1cnc(OC2CCN(C)CC2)c(Nc2nccc(-c3cc(C#N)c4c(c3)[C@@](C)(CO)CN4)n2)c1 [Compound 146]
25.7 nM,12 nM,171 °C,> 10000 nM,132 nM,–,–,–,Cc1cnc(CCN2CC(F)C2)c(Nc2nccc(-c3cc(C#N)c4c(c3)[C@@](C)(CO)CN4)n2)c1 [Compound 150]
–,5.8 nM,180 °C,~5890 nM,240 nM,9.3 nM,–,–,Cc1cnc(OC2CN(C)CC2F)c(Nc2nccc(-c3cc(C#N)c4c(c3)[C@@](C)(CO)CN4)n2)c1 (stereo partly shown) [Compound 153]
–,7.2 nM,185 °C,–,–,3 nM,~7940 nM,148 nM,Cc1cnc(OC2CN(C)CC2F)c(Nc2nccc(-c3cc(C#N)c4c(c3)[C@@](C)(CO)CN4)n2)c1 (stereo partly shown) [Compound 154]
–,12 nM,220 °C,–,–,19.5 nM,~2880 nM,81 nM,Cc1cnc(OC2CCN(C)CC2F)c(Nc2nccc(-c3cc(C#N)c4c(c3)[C@@](C)(CO)CN4)n2)c1 (stereo partly shown) [Compound 155]
6.3 nM,2.3 nM,245 °C,~6460 nM,105 nM,–,–,–,Cc1cnc(CO)cc1Nc1nccc(-c2cc(C#N)c3c(c2)[C@@](C)(CO)CN3)n1 [Compound 156]
25.7 nM,9.3 nM,173 °C,> 10000 nM,62 nM,–,–,–,Cc1cc(Nc2nccc(-c3cc(C#N)c4c(c3)[C@@](C)(CO)CN4)n2)c(OC(C)C)nc1CCN1CC(F)C1 [Compound 157]
5.9 nM,5.6 nM,179 °C,> 10000 nM,89 nM,–,–,–,Cc1cc(Nc2nccc(-c3cc(C#N)c4c(c3)[C@@](C)(CO)CN4)n2)c(C)nc1OCC1(C)COC1 [Compound 159]
2.1 nM,3.9 nM,189 °C,> 10000 nM,115 nM,–,–,–,Cc1cc(Nc2nccc(-c3cc(C#N)c4c(c3)[C@@](C)(CO)CN4)n2)c(C)nc1OCC1COC1 [Compound 160]
